#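 Step 1: Grow cells in 96-well plates. Step 2: Expose to compound for 48 hours at 5 concentrations. Step 3: Interpolate endpoints linearly; if unreached, use highest concentration. GI50: concentration for 50% inhibition of growth.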 The source made the active and inactive calls. Cut-off read from the data, not from the text of the source: active = GI50 up to about 1.1 µM and inactive = higher.
# Assays:
# Test in all cases: NCI anticancer screen, dose series, 48 h
# [1] = tested on: SK-MEL-5
# [2] = tested on: OVCAR-4
# [3] = tested on: M19-MEL
# [4] = tested on: SK-MEL-28
# [5] = tested on: RXF 393
# [6] = tested on: SK-OV-3
# [7] = tested on: HCT-116
# [8] = tested on: KM12
# [9] = tested on: LXFL 529
# [10] = tested on: HT-29
# [11] = tested on: HCT-15
# [12] = tested on: TK-10
# [13] = tested on: ACHN
# [14] = tested on: SNB-19
# [15] = tested on: SK-MEL-2
# [16] = tested on: DMS-273
# [17] = tested on: UACC-257
# [18] = tested on: HOP-18
# [19] = tested on: DMS-114
# [20] = tested on: MOLT-4
# [21] = tested on: A549
# [22] = tested on: OVCAR-3
# [23] = tested on: SF-295
# [24] = tested on: UO-31
# [25] = tested on: LOX IMVI
# [26] = tested on: NCI-H522
# [27] = tested on: OVCAR-8
# [28] = tested on: SNB-75
# [29] = tested on: SN12C
# [30] = tested on: SNB-78
# [31] = tested on: IGROV-1
# [32] = tested on: Malme-3M
# [33] = tested on: UACC-62
# [34] = tested on: DLD-1
# [35] = tested on: SF-268
# [36] = tested on: SF-539
# [37] = tested on: NCI-H226
# [38] = tested on: NCI-H23
# [39] = tested on: NCI-H460
# [40] = tested on: M14
# [41] = tested on: U-251
# [42] = tested on: OVCAR-5
# [43] = tested on: HL-60
# [44] = tested on: HOP-92
# [45] = tested on: K562
# [46] = tested on: COLO 205
# [47] = tested on: HOP-62
# [48] = tested on: SW-620
# [49] = tested on: CCRF-CEM
# [50] = tested on: SR
# [51] = tested on: HCC 2998
# [52] = tested on: CAKI-1
# [53] = tested on: KM-20L2
# [54] = tested on: RPMI-8226
# [55] = tested on: 786-0
smiles,measurement,setting,value
CC(=O)Oc1cc(OC(C)=O)c2c(=O)c3ccccc3n(C)c2c1,GI50,[1],15.1 µM (inactive)
same,GI50,[2],48.9 µM (inactive)
same,GI50,[3],21.6 µM (inactive)
same,GI50,[4],25.4 µM (inactive)
same,GI50,[5],34 µM (inactive)
same,GI50,[6],25.2 µM (inactive)
same,GI50,[7],26.1 µM (inactive)
same,GI50,[8],33.2 µM (inactive)
same,GI50,[9],34.8 µM (inactive)
same,GI50,[10],23.7 µM (inactive)
same,GI50,[11],42.1 µM
same,GI50,[12],29.8 µM (inactive)
same,GI50,[13],22 µM (inactive)
same,GI50,[14],33.7 µM (inactive)
same,GI50,[15],33 µM (inactive)
same,GI50,[16],16 µM (inactive)
same,GI50,[17],30.1 µM (inactive)
same,GI50,[18],14 µM (inactive)
same,GI50,[19],18.4 µM (inactive)
same,GI50,[20],38 µM (inactive)
same,GI50,[21],41.3 µM (inactive)
same,GI50,[22],56.9 µM (inactive)
same,GI50,[23],13.1 µM (inactive)
same,GI50,[24],21.2 µM (inactive)
same,GI50,[25],11.5 µM (inactive)
same,GI50,[26],10.4 µM (inactive)
same,GI50,[27],16 µM (inactive)
same,GI50,[28],27.4 µM (inactive)
same,GI50,[29],25.5 µM (inactive)
same,GI50,[30],31.6 µM (inactive)
same,GI50,[31],14.7 µM (inactive)
same,GI50,[32],25.7 µM (inactive)
same,GI50,[33],31.8 µM (inactive)
same,GI50,[34],21.9 µM (inactive)
same,GI50,[35],23.2 µM (inactive)
same,GI50,[36],18.7 µM (inactive)
same,GI50,[37],17.1 µM (inactive)
same,GI50,[38],22.6 µM (inactive)
same,GI50,[39],19.4 µM (inactive)
c1csc(C[N+]23CN4CN(CN(C4)C2)C3)c1,GI50,[1],19.3 µM (inactive)
same,GI50,[40],17 µM (inactive)
same,GI50,[2],24.3 µM (inactive)
same,GI50,[3],25.9 µM (inactive)
same,GI50,[41],22.3 µM (inactive)
same,GI50,[4],> 100 µM (inactive)
same,GI50,[42],26.9 µM (inactive)
same,GI50,[43],14.7 µM (inactive)
same,GI50,[7],> 100 µM (inactive)
same,GI50,[8],> 100 µM (inactive)
same,GI50,[9],20.3 µM (inactive)
same,GI50,[10],> 100 µM (inactive)
same,GI50,[11],28.2 µM
same,GI50,[12],26.4 µM (inactive)
same,GI50,[13],37.5 µM (inactive)
same,GI50,[44],22.7 µM (inactive)
same,GI50,[14],> 100 µM (inactive)
same,GI50,[45],20 µM (inactive)
same,GI50,[15],19.7 µM (inactive)
same,GI50,[16],18.9 µM (inactive)
same,GI50,[17],> 100 µM (inactive)
same,GI50,[46],20 µM (inactive)
same,GI50,[47],21.4 µM (inactive)
same,GI50,[19],20.6 µM (inactive)
same,GI50,[48],15.7 µM (inactive)
same,GI50,[20],21.6 µM (inactive)
same,GI50,[49],18.3 µM (inactive)
same,GI50,[21],30 µM (inactive)
same,GI50,[22],> 100 µM (inactive)
same,GI50,[23],> 100 µM (inactive)
same,GI50,[50],15.3 µM (inactive)
same,GI50,[51],19.3 µM (inactive)
same,GI50,[24],> 100 µM (inactive)
same,GI50,[52],25.8 µM (inactive)
same,GI50,[53],26.5 µM (inactive)
same,GI50,[26],> 100 µM (inactive)
same,GI50,[27],28.2 µM (inactive)
same,GI50,[28],> 100 µM (inactive)
same,GI50,[54],18.9 µM (inactive)
same,GI50,[31],29.9 µM (inactive)
same,GI50,[32],18.3 µM (inactive)
same,GI50,[33],22.6 µM (inactive)
same,GI50,[55],22.6 µM (inactive)
same,GI50,[34],33.7 µM (inactive)
same,GI50,[35],> 100 µM (inactive)
same,GI50,[36],> 100 µM (inactive)
same,GI50,[37],> 100 µM (inactive)
same,GI50,[38],> 100 µM (inactive)
same,GI50,[39],23.2 µM (inactive)
